The structures appear in SMILES notation.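 Interpolation was linear, between the two tested concentrations surrounding the appropriate level; five concentrations were tested over 48 hours in 96-well plates. The concentration for 50% growth inhibition is given as GI50.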 Active and inactive are the calls of the source. No stated cut-off is given here; in the data, active = GI50 up to about 1.1 µM and inactive = higher. Bounds are passed on as bounds.

Results on 8 molecules are retold here after ChEMBL document CHEMBL1201862, “PubChem BioAssay data set” (2004).

Test systems include 786-0; A549; CCRF-CEM; HT-29; M14; MDA-MB-435; NCI-H226; NCI/ADR-RES; RXF 393; SF-295; SF-539; SK-MEL-28; SNB-19; SNB-75; SR; SW-620; T47D; U-251; UO-31.
What all share (assay): growth of human tumour cells (NCI), 48 h

For `C(=N\CCCN1CCN(CCC/N=C/c2cccc3ccccc23)CC1)/c1cccc2ccccc12`, the GI50 with 786-0 was > 100 µM (inactive); in the experiment with A549, > 100 µM (inactive); in the experiment on CCRF-CEM, 52.7 µM (inactive); in the experiment with HT-29 it was 45.3 µM (inactive); in the experiment on M14 it was 8.99 µM (inactive); in the experiment with MDA-MB-435 it was 14.5 µM (inactive). Further, the GI50 in the experiment on NCI-H226 was 48.6 µM (inactive); in the experiment with NCI/ADR-RES, 38.8 µM (inactive); with RXF 393, 10.8 µM (inactive); in the experiment with SF-295 it was 57.9 µM (inactive); with SF-539, > 100 µM (inactive); with SK-MEL-28, 56.4 µM (inactive). Besides, the GI50 in the experiment with SNB-19 is 60.7 µM (inactive); with SNB-75 it was 29.9 µM (inactive); in the experiment on SR, 38 µM (inactive); with SW-620, 64.9 µM (inactive); in the experiment on T47D, > 100 µM (inactive); with U-251, 36.2 µM (inactive). Moreover, the GI50 with UO-31 is 48.3 µM (inactive).
Regarding `CC(Oc1ccccc1)C(=O)NN` (configuration not stated), the GI50 with 786-0, in the experiment with A549, in the experiment on CCRF-CEM, in the experiment on HT-29, in the experiment with M14 and in the experiment with MDA-MB-435 was > 100 µM (inactive) in each case. The GI50 in the experiment on NCI-H226, in the experiment with NCI/ADR-RES, with RXF 393, in the experiment with SF-295, in the experiment with SF-539 and in the experiment on SK-MEL-28 was > 100 µM (inactive) in each case. The GI50 in the experiment with SNB-19, with SNB-75, in the experiment on SR, with SW-620, in the experiment on T47D and in the experiment with U-251 was > 100 µM (inactive) throughout. Besides, in the experiment on UO-31, the GI50 is > 100 µM (inactive).
As for `CN(C(=O)CC(=O)CP(=O)(c1ccccc1)c1ccccc1)c1ccccc1`, the GI50 in the experiment with 786-0, with A549, in the experiment on CCRF-CEM, with HT-29, in the experiment with M14 and in the experiment on MDA-MB-435 was > 100 µM (inactive) each time. Moreover, the GI50 with NCI-H226, in the experiment with NCI/ADR-RES, in the experiment on RXF 393, in the experiment on SF-295, in the experiment on SF-539 and with SK-MEL-28 was > 100 µM (inactive) in each case. Besides, the GI50 in the experiment with SNB-19, in the experiment with SNB-75, with SR, in the experiment with SW-620, in the experiment on T47D and in the experiment on U-251 was > 100 µM (inactive) in each case. The GI50 with UO-31 is > 100 µM (inactive).
As to `N=C(N)n1nc2c(c1O)CCCC2`, the GI50 with 786-0, in the experiment with A549, in the experiment with CCRF-CEM, with HT-29, in the experiment on M14 and in the experiment with MDA-MB-435 was > 100 µM (inactive) each time. The GI50 with NCI-H226, with NCI/ADR-RES, in the experiment on RXF 393, with SF-295, in the experiment on SF-539 and in the experiment with SK-MEL-28 was > 100 µM (inactive) each time. The GI50 in the experiment with SNB-19 was > 100 µM (inactive); in the experiment on SNB-75 it was 14.5 µM (inactive); in the experiment on SR it was > 100 µM (inactive); in the experiment on SW-620 it was > 100 µM (inactive); in the experiment with T47D, > 100 µM (inactive); in the experiment with U-251 it was > 100 µM (inactive). For the same molecule, the GI50 with UO-31 is > 100 µM (inactive).
On to `CCC(C#N)(c1ccccc1)N(CCc1ccccc1)C(=O)c1ccccc1` (configuration not stated), for which the GI50 with 786-0 was 13.3 µM (inactive); with A549 it was 77.1 µM (inactive); with CCRF-CEM, > 100 µM (inactive); with HT-29, > 100 µM (inactive); in the experiment with M14, > 100 µM (inactive); with MDA-MB-435 it was > 100 µM (inactive). The GI50 in the experiment on NCI-H226 is 18.5 µM (inactive); with NCI/ADR-RES, 54.3 µM (inactive); with RXF 393 it was 24.5 µM (inactive); in the experiment on SF-295, 29.6 µM (inactive); with SF-539, 15.6 µM (inactive); in the experiment with SK-MEL-28, 42.6 µM (inactive). The GI50 with SNB-19 was 28 µM (inactive); in the experiment with SNB-75, 29.5 µM (inactive); with SR it was > 100 µM (inactive); in the experiment on SW-620, > 100 µM (inactive); in the experiment on T47D it was > 100 µM (inactive); in the experiment with U-251, 30.3 µM (inactive). In the experiment on UO-31, the GI50 is 64.3 µM (inactive).
`N#Cc1c(=O)c2ccccc2n2c1[nH]c1ccccc12`: the GI50 in the experiment on 786-0 was 41 µM (inactive); in the experiment on A549 it was 58.1 µM (inactive); in the experiment with CCRF-CEM it was 17.8 µM (inactive); in the experiment with HT-29, 30.5 µM (inactive); in the experiment with M14, 57.5 µM (inactive); in the experiment with MDA-MB-435, 54 µM (inactive). Also, the GI50 is 34.9 µM (inactive) in the experiment on NCI-H226; 15.3 µM (inactive) in the experiment on NCI/ADR-RES; 4.44 µM (inactive) in the experiment on RXF 393; 32.8 µM (inactive) with SF-295; 32.1 µM (inactive) in the experiment with SF-539; 52.2 µM (inactive) with SK-MEL-28. Moreover, the GI50 with SNB-19 is 42.5 µM (inactive); with SNB-75 it was 43.1 µM (inactive); in the experiment on SR it was 0.618 µM (active); in the experiment with SW-620 it was 48.5 µM (inactive); in the experiment with T47D it was 22.7 µM (inactive); with U-251, 34.1 µM (inactive). Besides, the GI50 with UO-31 was 33.7 µM (inactive).
As to `COC(=O)C1=C(OC(=O)/C(=C/c2ccc(Cl)cc2)c2ccccc2)C(C(=O)OC)[C@@]2(O)[C@@H](C(=O)OC)[C@H](C)C[C@@H]1[C@@H]2C(=O)OC` (some centres not stated), the GI50 was > 100 µM (inactive) in the experiment with 786-0; 7.85 µM (inactive) in the experiment on A549; > 100 µM (inactive) in the experiment on CCRF-CEM; > 100 µM (inactive) in the experiment with HT-29; > 100 µM (inactive) in the experiment with M14; > 100 µM (inactive) in the experiment with MDA-MB-435. Further, the GI50 was > 100 µM (inactive) in the experiment with NCI-H226; 37.4 µM (inactive) with NCI/ADR-RES; 3.01 µM (inactive) in the experiment with RXF 393; 6.79 µM (inactive) in the experiment with SF-295; > 100 µM (inactive) in the experiment on SF-539; > 100 µM (inactive) in the experiment on SK-MEL-28. Also, the GI50 is 77.8 µM (inactive) in the experiment with SNB-19; 29.6 µM (inactive) in the experiment with SNB-75; > 100 µM (inactive) with SR; > 100 µM (inactive) in the experiment on SW-620; > 100 µM (inactive) with T47D; 26.7 µM (inactive) in the experiment on U-251. Also, the GI50 in the experiment with UO-31 was > 100 µM (inactive).
Take `CC(Oc1ccc(Cl)cc1Cl)C(=O)NN1C(=O)CSC1c1ccccc1` (configuration not stated): the GI50 with 786-0 was 43.5 µM (inactive); in the experiment with A549, 39.3 µM (inactive); in the experiment with CCRF-CEM it was 66.7 µM (inactive); in the experiment on HT-29, > 100 µM (inactive); with M14 it was 54.2 µM (inactive); in the experiment on MDA-MB-435 it was > 100 µM (inactive). The GI50 in the experiment with NCI-H226 was 24.2 µM (inactive); in the experiment with NCI/ADR-RES, 86.3 µM (inactive); in the experiment with RXF 393 it was 54.7 µM (inactive); with SF-295 it was 60 µM (inactive); in the experiment on SF-539, > 100 µM (inactive); in the experiment with SK-MEL-28, 50.5 µM (inactive). The GI50 in the experiment on SNB-19 is 47.6 µM (inactive); in the experiment on SNB-75, 34.7 µM (inactive); in the experiment on SR, 3.89 µM (inactive); in the experiment on SW-620, > 100 µM (inactive); in the experiment on T47D it was 56.8 µM (inactive); with U-251, 76.4 µM (inactive). In the experiment on UO-31, the GI50 is > 100 µM (inactive).
